The record followed here is ChEMBL document CHEMBL4673355, “Thiacalixarene based quaternary ammonium salts as promising antibacterial agents” (Bioorg Med Chem, 2021).

SMILES strings stand for the structures. Values joined by “and” are separate entries in the source; they are usually repeats but may differ in a detail not shown here. Equal values may be shown once.

Series [1] has as its system Enterococcus faecalis. Kind of series: Bactericidal activity against Enterococcus faecalis ATCC 29212. The series is classed as functional.
Series [2] has as its system Pseudomonas aeruginosa. Kind of series: Antibacterial activity against Pseudomonas aeruginosa ATCC 27853 by CLSI broth microdilution method. The series is classed as functional.
Series [3] has as its system Escherichia coli. Kind of series: Bactericidal activity against Escherichia coli ATCC 25922. The series is classed as functional.
In series [4] the test system is Staphylococcus aureus. As to the kind of experiment: Antibacterial activity against Staphylococcus aureus ATCC 29223 by CLSI broth microdilution method. The series is classed as functional.
For series [5], the system named is Staphylococcus aureus. Kind of series: Bactericidal activity against Staphylococcus aureus ATCC 29213. The series is classed as functional.
Series [6] deals with Staphylococcus aureus. As to the kind of experiment: Bactericidal activity against Staphylococcus aureus ATCC 29223. The series is classed as functional.
Series [7] concerns Escherichia coli. As to the kind of experiment: Antibacterial activity against Escherichia coli ATCC 25922 by CLSI broth microdilution method. The series is classed as functional. On the technique in general: In broth dilution the organism is exposed to a series of concentrations in liquid medium.
The subject of series [8] is Enterococcus faecalis. Kind of series: Antibacterial activity against Enterococcus faecalis ATCC 29212 by CLSI broth microdilution method. The series is classed as functional.
Series [9] relates to Staphylococcus aureus. Kind of series: Antibacterial activity against Staphylococcus aureus ATCC 29213 by CLSI broth microdilution method. The series is classed as functional.
A short description of series [10]: Selectivity index, ratio of CC50 for human HSF cells to MIC for Escherichia coli ATCC 25922. The series is classed as toxicity.
Series [11] in a line: Selectivity index, ratio of CC50 for human HSF cells to MIC for Bacillus subtilis 168. The series is classed as toxicity. The note with it: HSF cells.
The subject of series [12] is Staphylococcus epidermidis. Kind of series: Antibacterial activity against Staphylococcus epidermidis assessed as reduction in bacterial growth incubated for 24 hrs by CLSI broth microdilution method. The series is classed as functional. The note with it: Staphylococcus epidermidis, read-out: MIC.
The nature of series [13]: Selectivity index, ratio of CC50 for human HSF cells to MIC for Staphylococcus aureus ATCC 29213. The series is classed as toxicity. The conditions noted are these: HSF cells.
Series [14] can be described thus: Selectivity index, ratio of CC50 for human HSF cells to MIC for Klebsiella pneumoniae ATCC 1813. The series is classed as toxicity. The conditions noted are these: HSF cells.
The test system of series [15] is Escherichia coli. As to the kind of experiment: Bactericidal activity against Escherichia coli ATCC 25922 assessed as reduction in bacterial growth incubated for 24 hrs followed by replating on MH broth and further incubated for 24 hrs by CLSI broth microdilution method. The series is classed as functional.
The subject of series [16] is Staphylococcus aureus. As to the kind of experiment: Antibacterial activity against Staphylococcus aureus ATCC 29213 assessed as reduction in bacterial growth incubated for 24 hrs by CLSI broth microdilution method. The series is classed as functional. The conditions noted are these: Staphylococcus aureus, ATCC 29213, 24 h, read-out: MIC.
The subject of series [17] is Staphylococcus intermedius. Kind of series: Antibacterial activity against methicillin- resistant Staphylococcus intermedius 1143 clinical isolate assessed as reduction in bacterial growth incubated for 24 hrs by CLSI broth microdilution method. The series is classed as functional.
For series [18], the system named is Klebsiella sp. Kind of series: Antibacterial activity against […] resistant Klebsiella sp. clinical isolate 12 assessed as reduction in bacterial growth incubated for 24 hrs by CLSI broth microdilution method. The series is classed as functional.
The nature of series [19]: Antibacterial activity against […] resistant Moraxella sp.765 clinical isolate assessed as reduction in bacterial growth incubated for 24 hrs by CLSI broth microdilution method. The series is classed as functional. The note with it: Moraxella catarrhalis.
Series [20] deals with Staphylococcus aureus. As to the kind of experiment: Bactericidal activity against Staphylococcus aureus ATCC 29213 assessed as reduction in bacterial growth incubated for 24 hrs followed by replating on MH broth and further incubated for 24 hrs by CLSI broth microdilution method. The series is classed as functional. The note with it: Staphylococcus aureus, ATCC 29213; time 48 hrs; read-out: MBC.

For series [21], the system named is Acinetobacter. Kind of series: Antibacterial activity against […] resistant Acinetobacter spp. clinical isolate 3 assessed as reduction in bacterial growth incubated for 24 hrs by CLSI broth microdilution method. The series is classed as functional.
The subject of series [22] is Staphylococcus aureus. Kind of series: Antibacterial activity against methicillin- resistant Staphylococcus aureus 25 clinical isolate assessed as reduction in bacterial growth incubated for 24 hrs by CLSI broth microdilution method. The series is classed as functional.
A short description of series [23]: Antibacterial activity against […] resistant Moraxella sp.829 clinical isolate assessed as reduction in bacterial growth incubated for 24 hrs by CLSI broth microdilution method. The series is classed as functional. The conditions noted are these: Moraxella catarrhalis.
Series [24] has as its system Proteus sp. Kind of series: Antibacterial activity against […] resistant Proteus sp. clinical isolate 17 assessed as reduction in bacterial growth incubated for 24 hrs by CLSI broth microdilution method. The series is classed as functional. The conditions noted are these: Proteus sp. (in: enterobacteria).
The subject of series [25] is Staphylococcus aureus. As to the kind of experiment: Antibacterial activity against methicillin- resistant Staphylococcus aureus 2020 clinical isolate assessed as reduction in bacterial growth incubated for 24 hrs by CLSI broth microdilution method. The series is classed as functional.
In series [26] the test system is Escherichia coli. As to the kind of experiment: Antibacterial activity against Escherichia coli ATCC 25922 assessed as reduction in bacterial growth incubated for 24 hrs by CLSI broth microdilution method. The series is classed as functional. The conditions noted are these: Escherichia coli, ATCC 25922, 24 h, read-out: MIC.
The test system of series [27] is Acinetobacter. As to the kind of experiment: Antibacterial activity against […] resistant Acinetobacter spp. clinical isolate 1 assessed as reduction in bacterial growth incubated for 24 hrs by CLSI broth microdilution method. The series is classed as functional.
The nature of series [28]: Selectivity index, ratio of CC50 for human HSF cells to MIC for Staphylococcus epidermidis. The conditions noted are these: HSF cells. The series is classed as toxicity.
Series [29] can be described thus: Cytotoxicity against human HSF cells assessed as reduction in cell viability incubated for 72 hrs by MTT assay. The series is classed as cell-based, HSF (VGS). A general note: Tetrazolium dyes change colour on reduction, which living cells bring about.
Series [30] has as its system Staphylococcus aureus. Kind of series: Antibacterial activity against methicillin- resistant Staphylococcus aureus 983 clinical isolate assessed as reduction in bacterial growth incubated for 24 hrs by CLSI broth microdilution method. The series is classed as functional.
Series [31] has as its system Bacillus subtilis. Kind of series: Antibacterial activity against Bacillus subtilis 168 assessed as reduction in bacterial growth incubated for 24 hrs by CLSI broth microdilution method. The series is classed as functional. The note with it: Bacillus subtilis, 168, 24 h, read-out: MIC.
Series [32] relates to Klebsiella pneumoniae. Kind of series: Antibacterial activity against Klebsiella pneumoniae ATCC 1813 assessed as reduction in bacterial growth incubated for 24 hrs by CLSI broth microdilution method. The series is classed as functional. The conditions noted are these: Klebsiella pneumoniae, ATCC 1813, 24 h, read-out: MIC.
Series [33] has as its system Acinetobacter. As to the kind of experiment: Antibacterial activity against […] resistant Acinetobacter spp. clinical isolate 5 assessed as reduction in bacterial growth incubated for 24 hrs by CLSI broth microdilution method. The series is classed as functional.
The subject of series [34] is Pseudomonas aeruginosa. As to the kind of experiment: Antibacterial activity against Pseudomonas aeruginosa ATCC 27853 assessed as reduction in bacterial growth incubated for 24 hrs by CLSI broth microdilution method. The note with it: Pseudomonas aeruginosa, ATCC 27853, 24 h, read-out: MIC. The series is classed as functional.
Series [35] relates to Klebsiella sp. As to the kind of experiment: Antibacterial activity against […] resistant Klebsiella sp. clinical isolate 11 assessed as reduction in bacterial growth incubated for 24 hrs by CLSI broth microdilution method. The series is classed as functional.
In series [36] the test system is Klebsiella pneumoniae. Kind of series: Bactericidal activity against Klebsiella pneumoniae ATCC 1813 assessed as reduction in bacterial growth incubated for 24 hrs followed by replating on MH broth and further incubated for 24 hrs by CLSI broth microdilution method. The series is classed as functional.
Series [37] deals with Staphylococcus aureus. As to the kind of experiment: Antibacterial activity against methicillin- resistant Staphylococcus aureus 967 clinical isolate assessed as reduction in bacterial growth incubated for 24 hrs by CLSI broth microdilution method. The series is classed as functional.
Series [38] is described as follows: Antibacterial activity against […] resistant Moraxella sp.764 clinical isolate assessed as reduction in bacterial growth incubated for 24 hrs by CLSI broth microdilution method. The series is classed as functional. The note with it: Moraxella catarrhalis.
The test system of series [39] is Staphylococcus haemolyticus. Kind of series: Antibacterial activity against methicillin- resistant Staphylococcus haemolyticus 837 assessed as reduction in bacterial growth incubated for 24 hrs by CLSI broth microdilution method. The series is classed as functional.
Series [40] deals with Bacillus subtilis. Kind of series: Bactericidal activity against Bacillus subtilis 168 assessed as reduction in bacterial growth incubated for 24 hrs followed by replating on MH broth and further incubated for 24 hrs by CLSI broth microdilution method. The conditions noted are these: Bacillus subtilis, 168, 24 h. The series is classed as functional.
The nature of series [41]: Selectivity index, ratio of CC50 for human HSF cells to MIC for Pseudomonas aeruginosa ATCC 27853. The series is classed as toxicity. The conditions noted are these: HSF cells.
Series [42] has as its system Pseudomonas aeruginosa. As to the kind of experiment: Bactericidal activity against Pseudomonas aeruginosa ATCC 27853 assessed as reduction in bacterial growth incubated for 24 hrs followed by replating on MH broth and further incubated for 24 hrs by CLSI broth microdilution method. The series is classed as functional.
Series [43] concerns Pseudomonas. Kind of series: Antibacterial activity against methicillin- resistant Pseudomonas spp. clinical isolate 6 assessed as reduction in bacterial growth incubated for 24 hrs by CLSI broth microdilution method. The series is classed as functional.
In series [44] the test system is Staphylococcus epidermidis. Kind of series: Bactericidal activity against Staphylococcus epidermidis assessed as reduction in bacterial growth incubated for 24 hrs followed by replating on MH broth and further incubated for 24 hrs by CLSI broth microdilution method. The series is classed as functional. The conditions noted are these: Staphylococcus epidermidis, read-out: MBC.

[45] abbreviates: Enterococcus faecalis, ATCC 29212, read-out: MIC.

One may read the MBC as the smallest concentration meeting the test's criterion for killing. One may read the MIC as the least concentration at which growth counts as inhibited. A word on the CC50: it is the concentration at which the toxic effect on the cells reaches its halfway point.

On to `N=C(N)NCCc1cc2c(O)c(c1)Cc1cc(CCNC(=N)N)cc(c1O)Cc1cc(CCNC(=N)N)cc(c1O)Cc1cc(CCNC(=N)N)cc(c1O)C2.O=C(O)C(F)(F)F.O=C(O)C(F)(F)F.O=C(O)C(F)(F)F.O=C(O)C(F)(F)F`, for which the minimal bactericidal concentration (MBC) in series [1] was greater than 256 µg/mL; in [3], 256 µg/mL; in series [5] it was 256 µg/mL; in [6], 256 µg/mL. Besides, the MIC in series [2] worked out at 32 µg/mL; in [4] it was 8 µg/mL; in [7] it was 4 µg/mL; in series [8] (setting [45]), 32 µg/mL; in [9] it was 8 µg/mL.

Turning to `CCCCCCCCCCCCCC(=O)NCCC[N+](C)(C)Cc1ccccc1.[Cl-]` [MIRAMISTIN], the selectivity ratio was found to be 0.15 in series [10]; 1.2 in [11]; 0.6 in series [13]; 0.15 in series [14]; 2.4 in [28]; 0.15 in series [41]. In addition, the MIC in [12] was 4 µg/mL; in series [16] it was 16 µg/mL; in series [17] it was 8 µg/mL; in series [18] it was greater than 64 µg/mL; in series [19] it was 64 µg/mL; in series [21], 64 µg/mL. Further, the MIC was 0.5 µg/mL in [22]; 32 µg/mL in [23]; greater than 64 µg/mL in series [24]; 8 µg/mL in series [25]; 64 µg/mL in series [26]; 64 µg/mL in [27]. The MIC was 4 µg/mL in series [30]; 8 µg/mL in [31]; 64 µg/mL in series [32]; greater than 64 µg/mL in [33]; 64 µg/mL in series [34]; 64 µg/mL in series [35]. In addition, the MIC in [37] was 16 µg/mL; in series [38] it was 64 µg/mL; in series [39] it was 64 µg/mL; in series [43], greater than 64 µg/mL. In addition, the MBC in [15] was 64 µg/mL; in [20] it was 32 µg/mL; in [36] it was 64 µg/mL; in [40], 64 µg/mL; in series [42], 64 µg/mL; in series [44], 32 µg/mL. In addition, in series [29], the CC50 at 72 h stood at 9.4 µg/mL.

For `CC(C)(C)c1cc2c(OCCCNC(=N)N)c(c1)Cc1cc(C(C)(C)C)cc(c1OCCCNC(=N)N)Cc1cc(C(C)(C)C)cc(c1OCCCNC(=N)N)Cc1cc(C(C)(C)C)cc(c1OCCCNC(=N)N)C2.O=C(O)C(F)(F)F.O=C(O)C(F)(F)F.O=C(O)C(F)(F)F.O=C(O)C(F)(F)F`, the MIC in series [8] is 4 µg/mL and 8 µg/mL; in [8] (setting [45]) it was 8 µg/mL.
